This is an account of results in PubChem BioAssay AID1259407 (Chemical Carcinogenesis Research Information System (CCRIS), 2018).

For the data set, the system named is CCRIS mutagenicity, Ames/micronucleus/aberration tests. Briefly: CCRIS mutagenicity studies.

Structures are written as SMILES. Activity calls are given as the source filed them. How the calls were made is not given here.

Take `CCN(CC)CCNc1ccc2ncn3c4ccc(O)cc4c(=O)c1c23`: the mutagenic call (Test System: AMES SALMONELLA TYPHIMURIUM, Strain/Indicator: TA1537, Metabolic Activation: NONE, Method: STANDARD PLATE) was “active; positive”; the mutagenic call (Test System: AMES SALMONELLA TYPHIMURIUM, Strain/Indicator: TA1537, Metabolic Activation: S-9, Method: STANDARD PLATE) is “active; positive”; the mutagenic call (Test System: CHINESE HAMSTER V-79, Strain/Indicator: V-79 (HGPRT)/6-THIOGUANINE, Metabolic Activation: NONE) is “active; positive”.

In the case of `COc1ccc(N)cc1N`, the mutagenic call runs as follows: (Test System: AMES SALMONELLA TYPHIMURIUM, Strain/Indicator: TA97, Metabolic Activation: HAMSTER, LIVER, S-9, AROCLOR 1254 (10%), Method: PREINCUBATION) “active; positive”; (Test System: AMES SALMONELLA TYPHIMURIUM, Strain/Indicator: TA97, Metabolic Activation: NONE, Method: PREINCUBATION) “inactive; negative”; (Test System: AMES SALMONELLA TYPHIMURIUM, Strain/Indicator: TA97, Metabolic Activation: RAT, LIVER, S-9, AROCLOR 1254 (4 OR 10%), Method: STANDARD PLATE) “active; positive”; (Test System: AMES SALMONELLA TYPHIMURIUM, Strain/Indicator: TA97, Metabolic Activation: RAT, LIVER, S-9, AROCLOR 1254 (10%), Method: PREINCUBATION) “active; positive”; (Test System: AMES SALMONELLA TYPHIMURIUM, Strain/Indicator: TA98, Metabolic Activation: HAMSTER, LIVER, S-9, AROCLOR 1254 (10%), Method: PREINCUBATION) “active; positive”; (Test System: AMES SALMONELLA TYPHIMURIUM, Strain/Indicator: TA98, Metabolic Activation: NONE, Method: PREINCUBATION) “active; positive”. The mutagenic call is, setting by setting: (Test System: AMES SALMONELLA TYPHIMURIUM, Strain/Indicator: TA98, Metabolic Activation: RAT, LIVER, S-9, AROCLOR 1254 (10%), Method: PREINCUBATION) “active; positive”; (Test System: AMES SALMONELLA TYPHIMURIUM, Strain/Indicator: TA100, Metabolic Activation: HAMSTER, LIVER, S-9, AROCLOR 1254 (10%), Method: PREINCUBATION) “active; positive”; (Test System: AMES SALMONELLA TYPHIMURIUM, Strain/Indicator: TA100, Metabolic Activation: NONE, Method: PREINCUBATION) “inactive; negative”; (Test System: AMES SALMONELLA TYPHIMURIUM, Strain/Indicator: TA100, Metabolic Activation: RAT, LIVER, S-9, AROCLOR 1254 (10%), Method: PREINCUBATION) “active; positive”; (Test System: AMES SALMONELLA TYPHIMURIUM, Strain/Indicator: TA1535, Metabolic Activation: HAMSTER, LIVER, S-9, AROCLOR 1254 (10%), Method: PREINCUBATION) “inactive; negative”; (Test System: AMES SALMONELLA TYPHIMURIUM, Strain/Indicator: TA1535, Metabolic Activation: NONE, Method: PREINCUBATION) “inactive; negative”. Moreover, the mutagenic call is “inactive; negative” (Test System: AMES SALMONELLA TYPHIMURIUM, Strain/Indicator: TA1535, Metabolic Activation: RAT, LIVER, S-9, AROCLOR 1254 (10%), Method: PREINCUBATION); “active; positive” (Test System: AMES SALMONELLA TYPHIMURIUM, Strain/Indicator: TA1537, Metabolic Activation: RAT, LIVER, S-9, AROCLOR 1254 (4 OR 10%), Method: STANDARD PLATE); “active; positive” (Test System: AMES SALMONELLA TYPHIMURIUM, Strain/Indicator: TA1538, Metabolic Activation: RAT, LIVER, S-9, AROCLOR 1254 (4 OR 10%), Method: STANDARD PLATE); “active; positive” (Test System: CHINESE HAMSTER V-79, Strain/Indicator: V-79/6-THIOGUANINE, Metabolic Activation: NONE, Method: SUSPENSION/PLATE); “inactive; negative” (Test System: CHINESE HAMSTER V-79, Strain/Indicator: V-79/6-THIOGUANINE, Metabolic Activation: RAT, LIVER, S-9, PHENOBARBITAL AND BETA-NAPHTHOFLAVONE, Method: SUSPENSION/PLATE); “inactive; negative” (Test System: E. COLI, Strain/Indicator: WP2 UVRA, Metabolic Activation: HAMSTER, LIVER, S-9, AROCLOR 1254, Method: STANDARD PLATE). Besides, the mutagenic call by setting is: (Test System: E. COLI, Strain/Indicator: WP2 UVRA, Metabolic Activation: HAMSTER, LIVER, S-9, Method: STANDARD PLATE) “inactive; negative”; (Test System: E. COLI, Strain/Indicator: WP2 UVRA, Metabolic Activation: MOUSE, LIVER, S-9, AROCLOR 1254, Method: STANDARD PLATE) “inactive; negative”; (Test System: E. COLI, Strain/Indicator: WP2 UVRA, Metabolic Activation: MOUSE, LIVER, S-9, Method: STANDARD PLATE) “inactive; negative”; (Test System: E. COLI, Strain/Indicator: WP2 UVRA, Metabolic Activation: NONE, Method: STANDARD PLATE) “inactive; negative”; (Test System: E. COLI, Strain/Indicator: WP2 UVRA, Metabolic Activation: RAT, LIVER, S-9, AROCLOR 1254, Method: STANDARD PLATE) “inactive; negative”; (Test System: E. COLI, Strain/Indicator: WP2 UVRA, Metabolic Activation: RAT, LIVER, S-9, Method: STANDARD PLATE) “inactive; negative”. For the same compound, the mutagenic call reads like this: (Test System: MOUSE LYMPHOMA, Strain/Indicator: L5178Y (TK+/TK-), Metabolic Activation: NONE, Method: SUSPENSION/PLATE) “active; positive”; (Test System: MOUSE LYMPHOMA, Strain/Indicator: L5178Y (TK+/TK-), Metabolic Activation: RAT, LIVER, S-9, AROCLOR 1254, Method: SUSPENSION/PLATE) “active; positive”.
